In patent publication US12692238B2, “Substituted pyridazinone herbicides” (FMC CORPORATION, priority 2020, dated 2026):

Legend:
Type in all cases: in vivo
[1] = tested on: blackgrass (Alopecurus myosuroides); experiment: Test A preemergence, blackgrass; details: 0 to 100 scale, 10 days
From the text: (§1) Seeds of plant species selected from barnyardgrass (Echinochloa crus-galli), blackgrass (Alopecurus myosuroides), corn (Zea mays), foxtail, giant (giant foxtail, Setaria faberi), foxtail, green (green foxtail, Setaria viridis), goosegrass (Eleusine indica), kochia (Bassia scoparia), oat, wild (wild oat, Avena fatua), palmer amaranth (pigweed, palmer, Amaranthus palmeri), redroot pigweed (Amaranthus retroflexus), ragweed (common ragweed, Ambrosia artemisiifolia), ryegrass, Italian (Italian ryegrass, Lolium multiflorum), and soybean (Glycine max) were planted into a blend of loam soil and sand and treated preemergence with a directed soil spray using test chemicals formulated in a non-phytotoxic solvent mixture which included a surfactant.
(§2) At the same time, plants selected from these crop and weed species and also wheat (Triticum aestivum), galium (catchweed bedstraw, Galium aparine) and horseweed (Erigeron canadensis) were planted in pots containing the same blend of loam soil and sand and treated with postemergence applications of test chemicals formulated in the same manner. Plants ranged in height from 2 to 10 cm and were in the one- to two-leaf stage for the postemergence treatment. Treated plants and untreated controls were maintained in a greenhouse for 10 days, after which time all treated plants were compared to untreated controls and visually evaluated for injury. Plant response ratings, summarized in Table A, are based on a 0 to 100 scale where 0 is no effect and 100 is complete control. A dash (-) response means no test result.

corn (Zea mays) [2] = experiment: Test A preemergence, corn; details: 0 to 100 scale, 10 days
From the text: as §1, §2

[3] = tested on: foxtail, giant (giant foxtail, Setaria faberi); experiment: Test A preemergence, foxtail, giant; details: 0 to 100 scale, 10 days
Procedure, shortened: (§3)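 Herbicidal response was scored visually after ten greenhouse days, comparing treated pots with untreated ones on a 0–100 control scale. Preemergence application was a directed soil spray; postemergence plants were treated at 2 to 10 cm height.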

[4] = tested on: goosegrass (Eleusine indica); experiment: Test A preemergence, goosegrass; details: 0 to 100 scale, 10 days
From the text: as §1, §2

kochia (Bassia scoparia) [5] = experiment: Test A preemergence, kochia; details: 0 to 100 scale, 10 days
Procedure, shortened: as §3

[6] = tested on: oat, wild (wild oat, Avena fatua); experiment: Test A preemergence, oat, wild; details: 0 to 100 scale, 10 days
From the text: as §1, §2

[7] = tested on: palmer amaranth (pigweed, palmer, Amaranthus palmeri); experiment: Test A preemergence, palmer amaranth; details: 0 to 100 scale, 10 days
From the text: as §1, §2

[8] = tested on: ragweed (common ragweed, Ambrosia artemisiifolia); experiment: Test A preemergence, ragweed; details: 0 to 100 scale, 10 days
Procedure, shortened: as §3

[9] = tested on: ryegrass, Italian (Italian ryegrass, Lolium multiflorum); experiment: Test A preemergence, ryegrass, Italian; details: 0 to 100 scale, 10 days
Procedure, shortened: as §3

soybean (Glycine max) [10] = experiment: Test A preemergence, soybean; details: 0 to 100 scale, 10 days
From the text: as §1, §2

[11] = tested on: blackgrass (Alopecurus myosuroides); experiment: Test A postemergence, blackgrass; details: 10 days
Procedure, shortened: as §3

corn (Zea mays) [12] = experiment: Test A postemergence, corn; details: 10 days
Procedure, shortened: as §3

[13] = tested on: foxtail, giant (giant foxtail, Setaria faberi); experiment: Test A postemergence, foxtail, giant; details: 10 days
Procedure, shortened: as §3

[14] = tested on: goosegrass (Eleusine indica); experiment: Test A postemergence, goosegrass; details: 10 days
From the text: as §1, §2

kochia (Bassia scoparia) [15] = experiment: Test A postemergence, kochia; details: 10 days
Procedure, shortened: as §3

[16] = tested on: oat, wild (wild oat, Avena fatua); experiment: Test A postemergence, oat, wild; details: 10 days
From the text: as §1, §2

[17] = tested on: palmer amaranth (pigweed, palmer, Amaranthus palmeri); experiment: Test A postemergence, palmer amaranth; details: 10 days
From the text: as §1, §2

[18] = tested on: ragweed (common ragweed, Ambrosia artemisiifolia); experiment: Test A postemergence, ragweed; details: 10 days
Procedure, shortened: as §3

[19] = tested on: ryegrass, Italian (Italian ryegrass, Lolium multiflorum); experiment: Test A postemergence, ryegrass, Italian; details: 10 days
Procedure, shortened: as §3

soybean (Glycine max) [20] = experiment: Test A postemergence, soybean; details: 10 days
From the text: as §1, §2

[21] = tested on: wheat (Triticum aestivum); experiment: Test A postemergence, wheat; details: 10 days
Procedure, shortened: as §3

[22] = tested on: galium (catchweed bedstraw, Galium aparine); experiment: Test A postemergence, galium; details: 10 days
Procedure, shortened: as §3

[23] = tested on: horseweed (Erigeron canadensis); experiment: Test A postemergence, horseweed; details: 10 days
From the text: as §1, §2

[24] = tested on: barnyardgrass (Echinochloa crus-galli); experiment: Test B flooded paddy test, barnyardgrass; details: 250 g ai/ha, Flood; visually evaluated after 10 to 14 days
Procedure, shortened: (§4)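 2-leaf plants; pots flooded to 3 cm; compound applied to paddy water; depth kept constant; greenhouse 10–14 d; visual rating vs untreated, 0 = no effect, 100 = complete control.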

[25] = tested on: ducksalad (Heteranthera limosa); experiment: Test B flooded paddy test, ducksalad; details: 250 g ai/ha, Flood; visually evaluated after 10 to 14 days
Procedure, shortened: as §4

rice (Oryza sativa) = experiment: Test B flooded paddy test, rice; details: 250 g ai/ha, Flood; visually evaluated after 10 to 14 days
Procedure, shortened: as §4

[26] = tested on: sedge, umbrella (small-flower umbrella sedge, Cyperus difformis); experiment: Test B flooded paddy test, sedge, umbrella; details: 250 g ai/ha, Flood; visually evaluated after 10 to 14 days
Procedure, shortened: as §4

[27] = tested on: wheat (Triticum aestivum); experiment: Test A preemergence, wheat; details: 125 g ai/ha, 0 to 100 scale, 10 days
[28] = 31 g ai/ha, postemergence, 0 to 100 scale (0 no effect, 100 complete control)
[29] = Postemergence, 125 g ai/ha, 0 to 100 scale

Cc1cc(C)c2cc3ccccc3c(-c3c(OCOC(=O)C(C)(C)C)c(Cl)nn(C)c3=O)c2c1 [Compound 20]
20: Plant response rating, Foxtail, Giant ([3]; 125 g ai/ha) | Plant response rating, Corn (corn (Zea mays) [12]; [29]) | Plant response rating, Foxtail, Giant [13, 28]
30: Plant response rating, Pigweed, Palmer ([7]; 31 g ai/ha) | Plant response rating, Foxtail, Giant [13, 29] | Plant response rating, Goosegrass [14, 28] | Plant response rating, Goosegrass [14, 29]
40: Plant response rating, Kochia (kochia (Bassia scoparia) [15]; [28])
70: Plant response rating, Ragweed [18, 28] | Plant response rating, Ragweed [18, 29]
0: Plant response rating, Blackgrass ([1]; 31 g ai/ha) | Plant response rating, Corn (corn (Zea mays) [2]; 31 g ai/ha) | Plant response rating, Corn (corn (Zea mays) [2]; 125 g ai/ha) | Plant response rating, Foxtail, Giant ([3]; 31 g ai/ha) | Plant response rating, Goosegrass ([4]; 31 g ai/ha) | Plant response rating, Goosegrass ([4]; 125 g ai/ha) | Plant response rating, Kochia (kochia (Bassia scoparia) [5]; 31 g ai/ha) | Plant response rating, Kochia (kochia (Bassia scoparia) [5]; 125 g ai/ha) | Plant response rating, Oat, Wild ([6]; 31 g ai/ha) | Plant response rating, Oat, Wild ([6]; 125 g ai/ha) | Plant response rating, Ragweed ([8]; 31 g ai/ha) | Plant response rating, Ryegrass, Italian ([9]; 31 g ai/ha) | Plant response rating, Ryegrass, Italian ([9]; 125 g ai/ha) | Plant response rating, Soybean (soybean (Glycine max) [10]; 31 g ai/ha) | Plant response rating, Soybean (soybean (Glycine max) [10]; 125 g ai/ha) | Plant response rating, Blackgrass [11, 28] | Plant response rating, Blackgrass [11, 29] | Plant response rating, Oat, Wild [16, 28] | Plant response rating, Oat, Wild [16, 29] | Plant response rating, Ryegrass, Italian [19, 28] | Plant response rating, Ryegrass, Italian [19, 29] | Plant response rating, Soybean (soybean (Glycine max) [20]; [28]) | Plant response rating, Soybean (soybean (Glycine max) [20]; [29]) | Plant response rating, Wheat [21, 28] | Plant response rating, Wheat [21, 29] | Plant response rating, Rice (0 to 100 scale where 0 is no effect and 100 is complete control) (rice (Oryza sativa)) | Plant response rating, Wheat [27]
60: Plant response rating, Pigweed, Palmer ([7]; 125 g ai/ha) | Plant response rating, Kochia (kochia (Bassia scoparia) [15]; [29])
80: Plant response rating, Horseweed [23, 29]
50: Plant response rating, Ragweed ([8]; 125 g ai/ha) | Plant response rating, Pigweed, Palmer [17, 28] | Plant response rating, Pigweed, Palmer [17, 29] | Plant response rating, Galium [22, 28] | Plant response rating, Galium [22, 29]
25: Plant response rating, Barnyardgrass (0 to 100 scale where 0 is no effect and 100 is complete control) [24]
10: Plant response rating, Blackgrass ([1]; 125 g ai/ha) | Plant response rating, Corn (corn (Zea mays) [12]; [28])
100: Plant response rating, Ducksalad (0 to 100 scale where 0 is no effect and 100 is complete control) [25]
90: Plant response rating, Horseweed [23, 28] | Plant response rating, Sedge, Umbrella (0 to 100 scale where 0 is no effect and 100 is complete control) [26]

Cc1ccc2cc3ccc(F)cc3c(-c3c(OCOC(=O)C(C)(C)C)c(C)nn(C)c3=O)c2c1 [Compound 21]
80: Plant response rating, Foxtail, Giant ([3]; 31 g ai/ha) | Plant response rating, Ryegrass, Italian [19, 28]
98: Plant response rating, Barnyardgrass (0 to 100 scale where 0 is no effect and 100 is complete control) [24]
100: Plant response rating, Foxtail, Giant ([3]; 125 g ai/ha) | Plant response rating, Kochia (kochia (Bassia scoparia) [5]; 31 g ai/ha) | Plant response rating, Kochia (kochia (Bassia scoparia) [5]; 125 g ai/ha) | Plant response rating, Pigweed, Palmer ([7]; 31 g ai/ha) | Plant response rating, Pigweed, Palmer ([7]; 125 g ai/ha) | Plant response rating, Foxtail, Giant [13, 29] | Plant response rating, Kochia (kochia (Bassia scoparia) [15]; [29]) | Plant response rating, Pigweed, Palmer [17, 28] | Plant response rating, Pigweed, Palmer [17, 29] | Plant response rating, Ragweed [18, 28] | Plant response rating, Ragweed [18, 29] | Plant response rating, Ryegrass, Italian [19, 29] | Plant response rating, Soybean (soybean (Glycine max) [20]; [28]) | Plant response rating, Soybean (soybean (Glycine max) [20]; [29]) | Plant response rating, Galium [22, 28] | Plant response rating, Galium [22, 29] | Plant response rating, Horseweed [23, 28] | Plant response rating, Horseweed [23, 29] | Plant response rating, Ducksalad (0 to 100 scale where 0 is no effect and 100 is complete control) [25] | Plant response rating, Sedge, Umbrella (0 to 100 scale where 0 is no effect and 100 is complete control) [26]
20: Plant response rating, Blackgrass [11, 28] | Plant response rating, Blackgrass [11, 29] | Plant response rating, Goosegrass [14, 28]
40: Plant response rating, Blackgrass ([1]; 125 g ai/ha) | Plant response rating, Goosegrass ([4]; 31 g ai/ha) | Plant response rating, Oat, Wild ([6]; 125 g ai/ha) | Plant response rating, Ryegrass, Italian ([9]; 31 g ai/ha) | Plant response rating, Corn (corn (Zea mays) [12]; [29]) | Plant response rating, Oat, Wild [16, 29]
60: Plant response rating, Goosegrass ([4]; 125 g ai/ha) | Plant response rating, Rice (0 to 100 scale where 0 is no effect and 100 is complete control) (rice (Oryza sativa))
90: Plant response rating, Ragweed ([8]; 125 g ai/ha) | Plant response rating, Ryegrass, Italian ([9]; 125 g ai/ha) | Plant response rating, Foxtail, Giant [13, 28] | Plant response rating, Kochia (kochia (Bassia scoparia) [15]; [28])
50: Plant response rating, Ragweed ([8]; 31 g ai/ha)
10: Plant response rating, Oat, Wild [16, 28]
30: Plant response rating, Corn (corn (Zea mays) [12]; [28]) | Plant response rating, Goosegrass [14, 29]
0: Plant response rating, Blackgrass ([1]; 31 g ai/ha) | Plant response rating, Corn (corn (Zea mays) [2]; 31 g ai/ha) | Plant response rating, Corn (corn (Zea mays) [2]; 125 g ai/ha) | Plant response rating, Oat, Wild ([6]; 31 g ai/ha) | Plant response rating, Soybean (soybean (Glycine max) [10]; 31 g ai/ha) | Plant response rating, Soybean (soybean (Glycine max) [10]; 125 g ai/ha) | Plant response rating, Wheat [21, 28] | Plant response rating, Wheat [21, 29] | Plant response rating, Wheat [27]
